{"source": "patent US20130231472A1", "about": "“USE OF MOLECULAR MARKERS FOR THE PRECLINICAL PROFILING OF INHIBITORS OF ENZYMES HAVING HISTONE DEACETYLASE ACTIVITY” (priority 2002, published 2013)", "key": {"leukemic spleens": {"system": "leukemic spleens", "assay": "Apoptosis in leukemic spleens after in vivo treatment (TUNEL assay)", "set-up": "species or system mice", "conditions": "VPA 400 mg/kg every 12 hours, 48 hours; FIG. 3A", "procedure": "(§1) FIG. 3: (A) Secondary acute promyelocytic leukemias were induced in mice as described above. Leukemic mice were then treated with placebo (Ctrl), or VPA (400 mg/kg every 12 hours). Mice were sacrificed 48 hours after beginning of treatments, and then leukemic spleens were fixed and either stained for histological examination (hematoxylin-eosyn, left panels), or analyzed for the presence of apoptotic cells (TUNEL assay, right panels). (B) Secondary leukemias were obtained as above. Mice were sacrificed when leukemic invasion of peripheral organs was >75% (spleen). Splenocytes from healthy mice (taken as control, left panel), or from leukemic mice (>75% blasts, right panel) were put in culture and then treated with VPA (1 mM) for 48 hours. At the end of the treatment, apoptosis was measured by propidium iodide staining. The sub-G1 area indicates the hypodiploid DNA peak corresponding to cells with fragmented DNA undergoing apoptosis."}, "[1]": {"system": "splenocytes from leukemic mice (>75% blasts)", "assay": "Apoptosis of cultured leukemic splenocytes/APL blasts (propidium iodide staining)", "type": "cell-based", "conditions": "VPA 1 mM, 48 hours, FIG. 3B", "procedure": "as §1\nFIG. 5: Leukemic blasts were obtained from spleens of secondary leukemic mice with a >75% invasion of tumor cells, as assessed by histological examination. Cells were put in culture and treated with VPA (1 mM) for 48 hours, in the absence or in the presence of the indicated TRAIL and/or caspase 8 inhibitors as indicated. At the end of the treatment, apoptosis was measured as described above."}, "[2]": {"system": "splenocytes from healthy mice", "assay": "Apoptosis of cultured normal splenocytes (propidium iodide staining)", "type": "cell-based", "conditions": "VPA 1 mM, 48 hours, FIG. 3B", "procedure": "as §1"}, "TRAIL": {"system": "TRAIL", "assay": "TRAIL expression in spleen after in vivo treatment (RNAse protection assay)", "set-up": "species or system mice", "conditions": "VPA 400 mg/kg every 12 hours, FIG. 4A", "quoted_text": "Leukemic mice or healthy mice (Ctrl) were then treated with placebo (lanes 1, 3), VPA (400 mg/kg every 12 hours), all-trans retinoic acid (a 21-day-release pellet containing 5 mg RA or placebo: lanes 8-9), and VPA plus retinoic acid (lanes 10-11). Mice were sacrificed 18 hours (lanes 4-5), or 36 hours after beginning of treatment (lanes 3, 6-7, 10-11): total RNAs were collected from the spleens (with a >75% invasion of leukemic blasts as assessed by Giemsa staining) and analyzed by RNAse protection assay to check for expression of TRAIL."}, "HDAC-2 [3]": {"system": "HDAC-2", "assay": "HDAC-2 protein levels in F9 teratocarcinoma cells (Westernblot)", "type": "cell-based, murine", "procedure": "(§2) FIG. 6: (A) F9 teratocarcinoma or HEK293T embryonic kidney cells were exposed for indicated times to 1 mM VPA. Protein levels of HDAC-2 and HDACs 1 or 3 for reference (HDAC8; N-CoR and Sin3 as data not shown) were determined by Westernblot analysis. […] (C) The effect of other HDAC inhibitors on the amount of HDAC-2 protein was determined by using TSA (100 nM) in a time course analysis in F9 cells (left panel). The HDAC inhibitors TSA (100 nM), trapoxin (TPX, 10 nM), butyrate (1.5 mM) or MS275 (5 μM) were tested at a single time of exposure in HEK293T cells (right panel)."}, "HDAC-2 [4]": {"system": "HDAC-2", "assay": "HDAC-2 protein levels in HEK293T cells (Westernblot)", "type": "cell-based, human", "procedure": "as §2\nFIG. 9: (A) HEK293T cells were treated for 24 h with VPA or left untreated. The cell penetrating protease inhibitors pepstatin A, leupeptin, or ALLM were added as indicated at the time of VPA addition. (B) Proteasome inhibitors ALLN or MG-132 were added at the indicated concentrations 4 h before cells were harvested. Protein levels of HDAC-2 were determined by Westernblot analysis."}, "HDAC-2 [5]": {"system": "HDAC-2", "assay": "HDAC-2 protein levels in K562 leukemia cells", "type": "cell-based, human"}, "HDAC-1": {"system": "HDAC-1", "assay": "HDAC-1 protein levels (Westernblot, reference)", "type": "cell-based", "conditions": "1 mM VPA; FIG. 6A; in some experiments a transient induction", "procedure": "as §2"}, "HDAC-3": {"system": "HDAC-3", "assay": "HDAC-3 pulse-chase analysis in HEK293T cells", "type": "cell-based, human", "conditions": "VPA pretreatment, FIG. 8B", "procedure": "FIG. 8: Synthesis and degradation rate of HDAC-2 were analyzed by pulse metabolic labeling with ^35S-methionine and pulse-chase analyses. ^35S-labelled HDAC-2 was detected by HDAC-2 specific immune precipitation followed by SDS-PAGE separation and autoradiography. (A) Pulse labeling for 1 h was performed in F9 and HEK293T cells which had been left untreated or were pretreated with 1 mM VPA for 24 h. (B) For pulse chase analysis cells were left untreated or pretreated for 24 h with 1 mM VPA and labeled with ^35S-methionine for an additional hour in the absence or presence of VPA. After removal of ^35S-methionine and addition of non-labeled methionine the elimination of radiolabeled HDAC-2 was followed over a period of 6 h. A pulse chase analysis was also performed in HEK293T cells without VPA pretreatment and addition of VPA (indicated by the (+) row) only at the time when the chase period was started. From HEK293T cell extracts also HDAC-3 was precipitated for reference."}, "HDAC-2 [6]": {"system": "HDAC-2", "assay": "Ubiquitinated HDAC-2 by His6-tagged ubiquitin / Ni2+-NTA agarose precipitation in HEK293T cells", "type": "cell-based, human", "conditions": "VPA 36 h, FIG. 10B", "procedure": "FIG. 10: (A) The total amount of high molecular weight poly-ubiquitinated protein was not altered by VPA treatment of cells (left two lanes). The presence of ubiquitinated proteins in anti HDAC-2 immune precipitates is shown in the right part of the panel. Cells had either been left untreated, were exposed to VPA (1.5 mM, 24 h) or the proteasome inhibitor ALLN (5 μM, 24 h) or both. Ubiquitinated proteins in the precipitates were detected by Western blot analysis. For lane N a non-immune serum was used instead of the anti HDAC-2 antibody. (B) The presence of mono- and/or oligo-ubiquitinated HDAC-2 upon VPA treatment of HEK293T cells was determined by ectopic expression of His6-tagged ubiquitin followed by VPA-treatment for 36 h as indicated. The proteasome inhibitor MG-132 was added 4 h prior to analysis to enhance the accumulation of ubiquitinated proteins. Electrophoretic mobility and unaltered presence of non-ubiquitinated HDAC-2 were determined by Westernblot analysis of whole cell extracts (left panel). Ubiquitinated proteins were precipitated with Ni^2+-NTA-agarose and analyzed for presence of ubiquitinated HDAC-2 (middle panel) by Westernblot analysis of precipitates. Anti-HDAC-2 immuno-reactive bands with the expected mobility of mono- or poly-ubiquitinated HDAC-2 are indicated by a bracket."}}, "data": [{"compound": "CCCC(CCC)C(=O)O", "note": "[VPA, Valproic acid]", "values": [{"measurement": "apoptotic cells in leukemic spleens (TUNEL)", "setting": "leukemic spleens", "value": "induces massive apoptosis within leukemic spleens"}, {"measurement": "apoptosis (propidium iodide, sub-G1)", "setting": "[1]", "value": "induces massive apoptosis of leukemic cells"}, {"measurement": "apoptosis (propidium iodide, sub-G1)", "setting": "[2]", "value": "unable to induce apoptosis of normal splenocytes"}, {"measurement": "TRAIL expression in spleen", "setting": "TRAIL; healthy mice", "value": "did not cause induction of TRAIL expression"}, {"measurement": "TRAIL expression in spleen", "setting": "TRAIL; leukemic mice, 18 or 36 hours", "value": "induced TRAIL for the entire duration of treatment"}, {"measurement": "HDAC-2 protein levels relative to untreated cells", "setting": "HDAC-2 [3]; 1 mM VPA, 24 h, persists up to 48 h, FIG. 6A (F9 and HEK293T, cell line not given)", "value": "about 30%"}, {"measurement": "HDAC-2 protein levels", "setting": "HDAC-2 [3]; F9 cells, VPA 1 mM, TSA 100 nM up to 48 h", "value": "reduced"}, {"measurement": "HDAC-2 protein levels", "setting": "HDAC-2 [4]; HEK293T cells, VPA 1 mM, TSA 100 nM, trapoxin 10 nM, butyrate 1.5 mM, MS275 5 μM", "value": "reduced"}, {"measurement": "HDAC-2 protein levels at higher doses", "setting": "HDAC-2 [4]; HEK 293T, VPA concentrations increased up to 5 or 10 mM, 36 h, FIG. 6B", "value": "slightly more pronounced reduction"}, {"measurement": "HDAC-2 protein levels", "setting": "HDAC-2 [5]", "value": "reduced"}, {"measurement": "HDAC-1 protein levels", "setting": "HDAC-1", "value": "not reduced"}, {"measurement": "degradation of HDAC-3 (pulse-chase)", "setting": "HDAC-3", "value": "not affected"}, {"measurement": "gross abundance of ubiquitinated proteins (anti His-tag)", "setting": "HDAC-2 [6]", "value": "not altered"}, {"measurement": "oligo- and polyubiquitinated HDAC-2 bands in Ni2+-NTA-agarose precipitates", "setting": "HDAC-2 [6]; MG-132 added 4 h prior to analysis", "value": "much more abundant"}]}]}
